System: purified HLA class II DR, DP and DQ molecules
Assay: MHC-peptide binding assays
Set-up: species or system human
Conditions: allele as in inferred restricting HLA allele column

Substance | Binding to the allelic variant shared by all responders
CFP10 52–66: 15-mer peptide epitope, residues 52–66 of CFP10 (Rv3874) | high affinity
ESAT-6 73–87: 15-mer peptide epitope, residues 73–87 of ESAT-6 (Rv3875) (ARTISEAGQAMASTE; UniProt P9WNK7 73-87, looked up, fragment) | high affinity

Reference: PMC3345088 (Journal of Immunology (Baltimore, Md. : 1950), 2012)
